We go through 21 compounds from patent US6653300B2, “Pyrazole compounds useful as protein kinase inhibitors” (Vertex Pharmaceuticals Incorporated, priority 2000, dated 2003).

One data set deals with T1, GSK-3β (AA 1-420) (Homo sapiens, UniProt P49841).
T1 construct: GSK-3β (AA 1-420)
Briefly: Ki determination for the inhibition of GSK-3 (coupled enzyme system). Type of data set: biochemical. The settings on record: 20 μM ATP, 20 nM GSK-3β, 30° C. In short, it runs like this: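 GSK-3β (AA 1-420, 20 nM) was run in a pyruvate kinase/LDH-coupled NADH assay in 100 mM HEPES pH 7.5, 10 mM MgCl2, 25 mM NaCl, 1 mM DTT, 1.5% DMSO, with 300 μM phosphopeptide substrate. Compound (0.002–30 μM) was preincubated 10 min at 30° C, then 20 μM ATP was added.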

Another data set addresses T2, Aurora-2 (Homo sapiens, UniProt O14965).
T2 sequence (O14965 1-403): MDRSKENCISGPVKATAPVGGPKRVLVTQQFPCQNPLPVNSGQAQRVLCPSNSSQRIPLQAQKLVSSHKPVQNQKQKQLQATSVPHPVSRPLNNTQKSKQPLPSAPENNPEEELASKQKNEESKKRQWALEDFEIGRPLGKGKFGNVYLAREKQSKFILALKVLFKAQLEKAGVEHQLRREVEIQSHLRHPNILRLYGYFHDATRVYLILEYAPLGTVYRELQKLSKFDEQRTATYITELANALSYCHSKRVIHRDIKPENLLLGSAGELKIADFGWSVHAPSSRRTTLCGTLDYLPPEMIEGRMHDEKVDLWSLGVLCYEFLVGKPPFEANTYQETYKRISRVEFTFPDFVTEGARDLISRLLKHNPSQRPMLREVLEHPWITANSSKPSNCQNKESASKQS
Kind of data set: Ki determination for the inhibition of Aurora-2 (coupled enzyme assay). The settings on record: 70 nM Aurora-2, 30° C. Type of data set: biochemical. The protocol:
Compounds were screened in the following manner for their ability to inhibit Aurora-2 using a standard coupled enzyme assay (Fox et al (1998) Protein Sci 7, 2249).
To an assay stock buffer solution containing 0.1M HEPES 7.5, 10 mM MgCl2, 1 mM DTT, 25 mM NaCl, 2.5 mM phosphoenolpyruvate, […], 30 mg/ml pyruvate kinase, 10 mg/ml lactate dehydrogenase, […], and 800 μM peptide (LRRASLG, American Peptide, Sunnyvale, Calif.) was added a DMSO solution of a compound of the present invention to a final concentration of 30 μM. The resulting mixture was incubated at 30° C. for 10 min. The reaction was initiated by the addition of 10 μL of Aurora-2 stock solution to give a final concentration of 70 nM in the assay. The rates of reaction were obtained by monitoring absorbance at 340 nm over a 5 minute read time at 30° C. using a BioRad Ultramark plate reader (Hercules, Calif.). The Ki values were determined from the rate data as a function of inhibitor concentration.

Molecules are shown by their SMILES. Where “and” joins values, the source holds several entries; their conditions need not be identical. Identical values can stand only once. Bounds are passed on as bounds.

T1 sequence (P49841 whole entry, the tested form may be a part): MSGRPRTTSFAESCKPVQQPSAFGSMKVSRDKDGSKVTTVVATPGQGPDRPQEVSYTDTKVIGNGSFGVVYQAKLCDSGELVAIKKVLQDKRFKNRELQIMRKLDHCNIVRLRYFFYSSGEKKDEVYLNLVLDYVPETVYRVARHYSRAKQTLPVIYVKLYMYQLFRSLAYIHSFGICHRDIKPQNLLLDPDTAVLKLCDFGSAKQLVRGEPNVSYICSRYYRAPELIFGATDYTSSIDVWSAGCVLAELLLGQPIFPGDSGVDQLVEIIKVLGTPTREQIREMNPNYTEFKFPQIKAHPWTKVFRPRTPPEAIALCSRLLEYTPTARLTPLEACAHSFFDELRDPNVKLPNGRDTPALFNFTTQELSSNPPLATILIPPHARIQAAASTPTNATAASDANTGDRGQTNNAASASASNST

Usually Ki stands for the dissociation constant of the complex between target and ligand, obtained from inhibition or displacement. Usually melting point stands for the temperature, or range, at which the solid turns liquid. For `COC(=O)Cc1ccc(Nc2nc(Nc3cc(C)[nH]n3)c3ccccc3n2)cc1C` [IIc-64, [2-(4-Methoxycarbonylmethyl-3-methylphenylamino)-quinazolin-4-yl]-(5-methyl-2H-pyrazol-3-yl)-amine], the melting point was in the range of 245 to 246 °C. Moreover, on GSK-3β (AA 1-420), the Ki lay in the range of 100 to 1000 nM. This compound also came in with a Ki on Aurora-2 of under 100 nM.

The compound `Cc1cc(Nc2nc(Sc3ccc(NS(C)(=O)=O)cc3)nc3c(O)cccc23)n[nH]1` [IIa-69, [8-Hydroxy-2-(4-methylsulfonylamino-phenylsulfanyl)-quinazolin-4-yl]-(5-methyl-2H-pyrazol-3-yl)-amine] yielded a melting point of 291 to 293 °C. Further, at GSK-3β (AA 1-420), the Ki was in the range of 100 to 1000 nM. Besides, the Ki at Aurora-2 was under 100 nM.

Regarding `c1ccc2c(c1)CC(Nc1nc(Nc3cc(C4CC4)[nH]n3)c3ccccc3n1)C2` [IIc-49, (5-Cyclopropyl-2H-pyrazol-3-yl)-[2-(indan-2-ylamino)-quinazolin-4-yl]-amine], the melting point lay in the range of 233 to 234 °C. The compound further displayed a Ki on GSK-3β (AA 1-420) of 100 to 1000 nM. In addition, on Aurora-2, the Ki was under 100 nM.

In the case of `Cc1cc(Nc2nc(NC3CCCCC3)nc3ccccc23)n[nH]1` [IIc-6, (2-Cyclohexylamino-quinazolin-4-yl)-(5-methyl-2H-pyrazol-3-yl)-amine], the melting point was 280 °C (dec.). For the same compound, at GSK-3β (AA 1-420), the Ki was < 100 nM and 100 to 1000 nM. The Ki at Aurora-2 is under 100 nM.

The compound `CCc1ccccc1Sc1nc(Nc2cc(C)[nH]n2)c2ccccc2n1` [IIa-5, [2-(2-Ethylphenylsulfanyl)-quinazolin-4-yl]-(5-methyl-2H-pyrazol-3-yl)-amine] registered a melting point of 205 to 208 °C. This compound also showed a Ki at GSK-3β (AA 1-420) of 100 to 1000 nM. The same compound had a Ki at Aurora-2 of under 100 nM.

In the case of `Cc1cc(Nc2nc(Sc3ccc(N)cc3)nc3ccccc23)n[nH]1` [IIa-62, [2-(4-Amino-phenylsulfanyl)-quinazolin-4-yl]-(5-methyl-2H-pyrazol-3-yl)-amine], the melting point is over 300 °C. The Ki at GSK-3β (AA 1-420) lay in the range of 100 to 1000 nM. Besides, the Ki on Aurora-2 was under 100 nM.

The compound `Cc1cc(Nc2nc(Nc3cccc(-c4ccccc4)c3)nc3ccccc23)n[nH]1` [IIc-63, [2-(Biphenyl-3-ylamino)-quinazolin-4-yl]-(5-methyl-2H-pyrazol-3-yl)-amine] gave a melting point of 206 to 207 °C. At GSK-3β (AA 1-420), this compound came in with a Ki of 100 to 1000 nM. This compound also registered a Ki at Aurora-2 of under 100 nM.

`Cc1cc(Nc2nc(Nc3ccc(NC(=O)OC(C)(C)C)cc3)nc3ccccc23)n[nH]1` [IIc-60, [2-(4-tert-Butoxycarbonylamino-phenylamino)-quinazolin-4-yl]-(5-methyl-2H-pyrazol-3-yl)-amine] registered a melting point of 238 to 242 °C. This compound displayed a Ki on GSK-3β (AA 1-420) of 1000 to 7000 nM. The compound also came in with a Ki at Aurora-2 of under 100 nM.

With `COC(=O)c1ccc(Sc2nc(Nc3cc(C)[nH]n3)c3ccccc3n2)cc1` [IIa-42, [2-(4-Methoxycarbonylphenylsulfanyl)-quinazolin-4-yl]-(5-methyl-2H-pyrazol-3-yl)-amine], the melting point was in the range of 257 to 260 °C. The compound also had a Ki on GSK-3β (AA 1-420) of 100 to 1000 nM. For the same compound, the Ki on Aurora-2 was under 100 nM.

Consider `O=C(O)c1cccc(Sc2nc(Nc3cc(C4CC4)[nH]n3)c3ccccc3n2)c1` [IIa-26, [2-(3-Carboxyphenylsulfanyl)-quinazolin-4-yl]-(5-cyclopropyl-2H-pyrazol-3-yl)-amine], for which the melting point is over 300 °C. Besides, the Ki on GSK-3β (AA 1-420) is under 100 nM. At Aurora-2, the Ki is under 100 nM.

For the compound `COC(=O)c1ccc(Sc2nc(Nc3cc(C4CC4)[nH]n3)c3ccccc3n2)cc1` [IIa-35, (5-Cyclopropyl-2H-pyrazol-3-yl)-[2-(4-methoxycarbonylphenylsulfanyl)-quinazolin-4-yl]-amine], the melting point is 245 to 246 °C. Besides, at GSK-3β (AA 1-420), the Ki is 100 to 1000 nM. Also, the Ki at Aurora-2 is under 100 nM.

On to `Cc1cc(Nc2nc(Sc3ccc(NC(=O)CN(C)C(=O)OC(C)(C)C)cc3)nc3ccccc23)n[nH]1` [IIa-76, (2-{4-[2-(tert-Butoxycarbonyl-methyl-amino)-acetylamino]-phenylsulfanyl}-quinazolin-4-yl)-(5-methyl-2H-pyrazol-3-yl)-amine], for which the melting point is 228 to 229 °C (dec.). On GSK-3β (AA 1-420), the Ki lay within 1000 to 7000 nM. In addition, the Ki on Aurora-2 is under 100 nM.

For the compound `Cc1cc(Nc2nc(Sc3ccccc3O)nc3ccccc23)n[nH]1` [IIa-11, [2-(2-Hydroxyphenylsulfanyl)-quinazolin-4-yl]-(5-methyl-2H-pyrazol-3-yl)-amine], the melting point lay within 273 to 275 °C. This compound also showed a Ki on GSK-3β (AA 1-420) of under 100 nM. For the same compound, the Ki on Aurora-2 is under 100 nM.

On to `CC(=O)Nc1ccc(Sc2nc(Nc3cc(C)[nH]n3)c3cccc(OCCCN4CCOCC4)c3n2)cc1` [IIa-41, [2-(4-Acetamidophenylsulfanyl)-8-(3-morpholin-4-yl-propoxy)-quinazolin-4-yl]-(5-methyl-2H-pyrazol-3-yl)-amine], for which the melting point is 262 to 264 °C. On GSK-3β (AA 1-420), the Ki is 100 to 1000 nM. Besides, the Ki at Aurora-2 was under 100 nM.

`c1ccc(Cc2nc(Nc3cc(C4CC4)[nH]n3)c3ccccc3n2)cc1` [IId-3, (2-Benzyl-quinazolin-4-yl)-(5-cyclopropyl-2H-pyrazol-3-yl)-amine]: the melting point was 219 to 221 °C. In addition, on GSK-3β (AA 1-420), the Ki lay in the range of 1000 to 7000 nM. The same compound yielded a Ki on Aurora-2 of under 100 nM.

In the case of `COC(=O)c1cccc(Sc2nc(Nc3cc(C4CC4)[nH]n3)c3ccccc3n2)c1` [IIa-22, (5-Cyclopropyl-2H-pyrazol-3-yl)-[2-(3-methoxycarbonylphenylsulfanyl)-quinazolin-4-yl]-amine], the melting point lay in the range of 224 to 225 °C. This compound also showed a Ki at GSK-3β (AA 1-420) of under 100 nM. The compound further came in with a Ki at Aurora-2 of under 100 nM.

Consider `O=C(O)Cc1ccc(Nc2nc(Nc3cc(C4CC4)[nH]n3)c3ccccc3n2)cc1` [IIc-36, [2-(4-Carboxymethylphenylamino)-quinazolin-4-yl]-(5-cyclopropyl-2H-pyrazol-3-yl)-amine], for which the melting point was > 210 °C (dec.). At GSK-3β (AA 1-420), this compound showed a Ki of under 100 nM. In addition, the Ki on Aurora-2 is under 100 nM.

As for `CCc1cc(Nc2nc(Nc3cc(CC)[nH]n3)c3ccccc3n2)n[nH]1` [IIc-69, (5-Ethyl-2H-pyrazol-3-yl)-[2-(5-ethyl-2H-pyrazol-3-ylamino)-quinazolin-4-yl]-amine], the melting point lay in the range of 248 to 252 °C. Besides, the Ki at GSK-3β (AA 1-420) lay within 1000 to 7000 nM. Moreover, on Aurora-2, the Ki is under 100 nM.

`CC(=O)Nc1ccc(Nc2nc(Nc3cc(C)[nH]n3)c3ccccc3n2)cc1` [IIc-59, [2-(4-Acetamidophenylamino)-quinazolin-4-yl]-(5-methyl-2H-pyrazol-3-yl)-amine] had a melting point of 253 to 256 °C. On GSK-3β (AA 1-420), this compound yielded a Ki of 100 to 1000 nM. The compound also displayed a Ki at Aurora-2 of under 100 nM.

Turning to `Cc1cc(Nc2nc(Nc3ccc(CC(=O)O)c(C)c3)nc3ccccc23)n[nH]1` [IIc-65, [2-(4-Carboxymethyl-3-methylphenylamino)-quinazolin-4-yl]-(5-methyl-2H-pyrazol-3-yl)-amine], the melting point is 245 °C (dec.). Further, the Ki at GSK-3β (AA 1-420) lay in the range of 100 to 1000 nM. This compound displayed a Ki at Aurora-2 of under 100 nM.

The compound `c1ccc2c(Nc3cc(C4CC4)[nH]n3)nc(NCCC3CCCCC3)nc2c1` [IIc-29, [2-(2-Cyclohexylethylamino)-quinazolin-4-yl]-(5-cyclopropyl-2H-pyrazol-3-yl)-amine] showed a melting point of over 250 °C. Moreover, the Ki at GSK-3β (AA 1-420) lay in the range of 100 to 1000 nM. On Aurora-2, the Ki was under 100 nM.
